Experimental data as given in patent US5283353A, “Preparation of 1-amino-1-deoxyoligosaccharides and derivatives thereof” (Genzyme Corporation, priority 1990, dated 1994).
Read-outs that look alike come from different tables or passages of the source.

What was measured:
[1] = Hydrolysis of 1-amino-1-deoxy-N-acetylglucosamine to 2-acetamido-2-deoxy-D-glucose in 50 mM phosphate p2H 7.0 buffer, followed by 1H NMR; format: physicochemical; conditions: for Pseudo-first order rate constant for hydrolysis: calculated
Method: To a solution of 1 mg of turkey ovomucoid glycopeptide (a heterogeneous mixture of three structurally related complex type oligosaccharides purified as described by E. M. Taga et al., Biochemistry, 23, 815-822 (1984)) in 50 mM phosphate, p^2 H 7.0 buffer in 99.96% ^2 H2 O equilibrated at the desired temperature was added the almond amidohydrolase enzyme to give a total volume of 0.5 ml. The reaction was followed by ^1 H NMR. The hydrolysis of 1-amino-1-deoxy-N-acetylglucosamine in 50 mM phosphate, p^2 H 7.0, buffer in 99.96% ^2 H2 O to 2-acetamido-2-deoxy-D-glucose was followed by ^1 H NMR as a reference compound. The proton peaks of interest were integrated and the pseudo first-order rate constant was calculated from the slope of a plot of the natural logarithm of the peak area as a function of time.
The rate of hydrolysis for the model compound was readily measured using ^1 H NMR. Upon hydrolysis, the ^1 H NMR signal for the anomeric proton of the model compound shifts downfield from 4.189 ppm (J1,2 =9.35 Hz) to 5.195 ppm (J1,2 =3.38 Hz) and 4.709 ppm (J1,2 =3.38 Hz), the former the alpha-anomer and the latter the beta-anomer of the product, N-acetylglucosamine, while the chemical shift of the N-acetyl group is unchanged. The pseudo-first order rate constants for the enzyme-catalyzed reaction and for the hydrolysis of the model compound are given in Table I; based on least squares standard error analysis, the precision in the pseudo-first order rate constant is ±5%. These limited data give energies of activation for the enzyme-catalyzed reaction of 9.5 kcal […] and for the model compound of 17.7 kcal mol^1.

[2] = cited from earlier work

With `CC(=O)N[C@@H]1[C@@H](O)[C@H](O)[C@@H](CO)O[C@H]1N` [1-Amino-N-acetylglucosamine, 1-amino-1-deoxy-N-acetylglucosamine] the “Pseudo-first order rate constant for hydrolysis” value (“Pseudo-first order rate constant” for short) ([1]; p2H 7.0, 24 °C) was 1.08 10^3 × k (min^-1), the “Pseudo-first order rate constant” value ([1]; p2H 7.0, 39 °C) was 4.56 10^3 × k (min^-1) and the “Energy of activation for hydrolysis of the model compound” value ([1]; p2H 7.0, from rate constants of Table I) was 17.7 kcal mol^1. For the same compound, the “Pseudo-first order rate constant” value ([2]; p2H 7.0, 22 °C) was 0.88 10^3 × k (min^-1) and the “Pseudo-first order rate constant” value ([2]; p2H 7.0, 37 °C) was 3.81 10^3 × k (min^-1).
